For one assay, the system named is HeLa. Kind of assay: Cytotoxicity against human HeLa cells. In kind it is functional, cell-based.
Another assay relates to HepG2. Kind of assay: Cytotoxicity against human HepG2 cells. The class given is functional, cell-based.
In a further assay the test system is MCF7. Kind of assay: Cytotoxicity against human MCF7 cells. In kind it is functional, cell-based.
A further assay deals with SMMC-7721. The assay can be described thus: Cytotoxicity against human SMMC7721 cells. In kind it is functional, cell-based.
The test system of another assay is MDA-MB-231. Kind of assay: Cytotoxicity against human MDA-MB-231 cells. The class given is functional, cell-based.
Another assay has as its system Pseudomonas fluorescens. The assay can be described thus: Antibacterial activity against Pseudomonas fluorescens after 18 hrs by broth microdilution method. The class given is functional. (In general: Dilution methods test growth across graded concentrations, often in twofold steps.)
Another assay relates to Pseudomonas aeruginosa. The assay can be described thus: Antibacterial activity against Pseudomonas aeruginosa after 18 hrs by broth microdilution method. The class given is functional.
A further assay deals with Staphylococcus aureus. The assay can be described thus: Antibacterial activity against methicillin-resistant Staphylococcus aureus after 18 hrs by broth microdilution method. In kind it is functional.
The subject of assay [1] is Staphylococcus epidermidis. The assay can be described thus: Antibacterial activity against Staphylococcus epidermidis after 18 hrs by broth microdilution method. The class given is functional.
The subject of the next assay is Candida albicans. The assay can be described thus: Antifungal activity against Candida albicans after 18 hrs by broth microdilution method. In kind it is functional.
For another assay, the system named is SW1990. Kind of assay: Cytotoxicity against human SW1990 cells. The class given is functional, cell-based.
Another assay has as its system NCI-H460. Kind of assay: Cytotoxicity against human NCI-H460 cells. In kind it is functional, cell-based.
The mark [2] stands for this setting: Homo sapiens, HeLa, read-out: IC50.
[3] abbreviates: Homo sapiens, HepG2, read-out: IC50.
[4] abbreviates: Homo sapiens, MCF7, read-out: IC50.
The mark [5] stands for this setting: Homo sapiens, SMMC-7721, read-out: IC50.
Setting [6] is: Homo sapiens, MDA-MB-231, read-out: IC50.
The mark [7] stands for this setting: Homo sapiens, SW1990, read-out: IC50.
[8] abbreviates: Homo sapiens, NCI-H460, read-out: IC50.

Converted amounts (≈) assume the structure as drawn. The source made the active and inactive calls. The calls are words filed in the database; no cut-off is given here.

In general, IC50 refers to the concentration needed to halve the response being measured. Regarding `COc1cccc2c1C(=O)c1c(O)c3c(c(O)c1C2=O)C[C@@](O)(C(=O)CO)C[C@@H]3O[C@H]1C[C@H](N)[C@H](O)[C@H](C)O1` [DOXORUBICIN], the IC50 was 5 µM in the assay on HeLa (setting [2]); 7 µM in the assay on HepG2 (setting [3]); 7 µM in the assay on MCF7 (setting [4]); 172 µM with SMMC-7721 (setting [5]); 4 µM in the assay on MDA-MB-231 (setting [6]).

For orientation: MIC means the lowest concentration that inhibits growth of the organism. As for `CC1(C)S[C@@H]2[C@H](NC(=O)[C@H](N)c3ccccc3)C(=O)N2[C@H]1C(=O)O` [AMPICILLIN], the MIC in the assay on Pseudomonas fluorescens was 2 µg/mL (≈ 5.72 µM); in the assay with Pseudomonas aeruginosa, 4 µg/mL (≈ 11.4 µM); with Staphylococcus aureus, 8 µg/mL (≈ 22.9 µM); in assay [1] it was 4 µg/mL (≈ 11.4 µM).

Regarding `C=C1[C@@H](O)C[C@@H]2[C@](C)(CCC[C@]2(C)C(=O)O)[C@H]1CC(=O)O`, the IC50 result in the assay with HeLa (hela), in the assay on HepG2 (hepg2), in the assay with MCF7 (mcf7), in the assay with SMMC-7721 (smmc-7721), with SW1990 (sw1990) and in the assay with MDA-MB-231 (mda-mb-231) was “Not Active” each time. Further, the IC50 entry in the assay with NCI-H460 (nci-h460) is recorded as “Not Active”. Moreover, in the assay on Candida albicans, the MIC result is “inactive”.

Take `C[C@@]12C[C@@H](O)C[C@]3(C)C4=CC(=O)OCC4=C[C@@H](OC1=O)[C@@H]23` [WENTILACTONE B]: the IC50 with HeLa (setting [2]) turned out to be 42 µM; in the assay with HepG2 (setting [3]), 38 µM; in the assay with MCF7 (setting [4]), 56 µM; in the assay with SMMC-7721 (setting [5]) it was 17 µM; in the assay with SW1990 (setting [7]) it was 24 µM; in the assay on NCI-H460 (setting [8]), 24 µM. Besides, the MIC result in the assay with Candida albicans was “inactive”.

For `O=c1[nH]cc(F)c(=O)[nH]1` [FLUOROURACIL], the IC50 in the assay with HeLa (setting [2]) came to 108 µM; in the assay on HepG2 (setting [3]) it was 108 µM; in the assay on SMMC-7721 (setting [5]), 15 µM; in the assay with SW1990 (setting [7]), 123 µM; in the assay with MDA-MB-231 (setting [6]), 62 µM; in the assay with NCI-H460 (setting [8]), 8 µM.

In the case of NYSTATIN, in the assay with Candida albicans, the MIC amounted to 2 µg/mL.

Turning to `C[C@@]12C3=CC(=O)OCC3=C[C@H]3OC(=O)[C@](C)([C@H]31)[C@H]1O[C@H]1[C@H]2O` [ASPEROLIDE B], the IC50 was 56 µM in the assay with HeLa (setting [2]); “Not Active” in the assay with HepG2 (hepg2); 63 µM with MCF7 (setting [4]); 69 µM in the assay on SW1990 (setting [7]); 35 µM in the assay with MDA-MB-231 (setting [6]); 63 µM in the assay on NCI-H460 (setting [8]).

Consider `C[C@]12C3=CC(=O)OCC3=C[C@H]3OC(=O)[C@@](C)(C=C[C@H]1O)[C@H]32` [ASPEROLIDE A], for which the IC50 in the assay with HeLa (setting [2]) is 97 µM; in the assay on HepG2 (setting [3]), 63 µM; in the assay on MCF7 (mcf7) it was “Not Active”; in the assay on SMMC-7721 (setting [5]) it was 52 µM; with SW1990 (setting [7]), 69 µM; in the assay on NCI-H460 (setting [8]), 42 µM. In the assay with Candida albicans, the MIC entry was “inactive”.

For `C[C@@]12C3=CC(=O)OCC3=C[C@H]3OC(=O)[C@](C)([C@H]31)[C@@H](O)[C@H]1O[C@H]12` [WENTILACTONE A], the IC50 was 52 µM with HeLa (setting [2]); 35 µM in the assay with HepG2 (setting [3]); 69 µM with MCF7 (setting [4]); 28 µM in the assay on SMMC-7721 (setting [5]); 42 µM in the assay with SW1990 (setting [7]); 28 µM in the assay on NCI-H460 (setting [8]). Moreover, the MIC entry in the assay on Candida albicans is “inactive”.

Take `C[C@]12C(=O)O[C@@H]3C=C4COC(=O)C=C4[C@@](C)(C=C[C@@H]1O)[C@@H]32`: the IC50 is 63 µM with HeLa (setting [2]); “Not Active” in the assay on HepG2 (hepg2); 38 µM in the assay with MCF7 (setting [4]); 63 µM in the assay on SW1990 (setting [7]); 42 µM in the assay with MDA-MB-231 (setting [6]); 42 µM in the assay with NCI-H460 (setting [8]). This compound gave an MIC against Candida albicans of 16 µg/mL (≈ 55.5 µM).

For the origin of these results see ChEMBL document CHEMBL2010682, “Asperolides A-C, tetranorlabdane diterpenoids from the marine alga-derived endophytic fungus Aspergillus wentii EN-48” (J Nat Prod, 2012).
